Data: publication PMC9516332 (Frontiers in Oncology, 2022)
Like-named read-outs stand apart in the source and are kept apart here.

What was measured:
EGFR-mutant cell lines = test: Cell viability assay, EGFR-mutant versus EGFR wild-type cell lines; assay type: cell-based
[1] = target: T1, panel of 255 wild-type kinases (Homo sapiens, UniProt Q9NWZ3); settings: kinase IRAK4, 1 µmol/L single concentration, cited from earlier work
T1 sequence (Q9NWZ3 1-460): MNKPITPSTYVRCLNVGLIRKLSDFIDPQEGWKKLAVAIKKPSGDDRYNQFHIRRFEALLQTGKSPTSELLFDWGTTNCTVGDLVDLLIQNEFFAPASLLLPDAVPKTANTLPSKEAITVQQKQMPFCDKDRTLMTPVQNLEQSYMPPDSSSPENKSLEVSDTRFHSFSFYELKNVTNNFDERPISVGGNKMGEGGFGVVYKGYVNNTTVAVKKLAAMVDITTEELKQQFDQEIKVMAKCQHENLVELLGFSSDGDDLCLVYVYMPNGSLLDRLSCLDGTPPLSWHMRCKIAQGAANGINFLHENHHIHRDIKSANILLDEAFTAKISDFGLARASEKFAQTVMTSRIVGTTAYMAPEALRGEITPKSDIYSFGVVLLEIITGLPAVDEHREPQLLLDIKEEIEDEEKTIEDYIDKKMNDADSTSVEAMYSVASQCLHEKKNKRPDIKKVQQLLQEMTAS

[2] = target: T2, panel of 255 wild-type kinases (Homo sapiens, UniProt Q08881); settings: kinase ITK, 1 µmol/L single concentration, cited from earlier work
T2 sequence (Q08881 1-620): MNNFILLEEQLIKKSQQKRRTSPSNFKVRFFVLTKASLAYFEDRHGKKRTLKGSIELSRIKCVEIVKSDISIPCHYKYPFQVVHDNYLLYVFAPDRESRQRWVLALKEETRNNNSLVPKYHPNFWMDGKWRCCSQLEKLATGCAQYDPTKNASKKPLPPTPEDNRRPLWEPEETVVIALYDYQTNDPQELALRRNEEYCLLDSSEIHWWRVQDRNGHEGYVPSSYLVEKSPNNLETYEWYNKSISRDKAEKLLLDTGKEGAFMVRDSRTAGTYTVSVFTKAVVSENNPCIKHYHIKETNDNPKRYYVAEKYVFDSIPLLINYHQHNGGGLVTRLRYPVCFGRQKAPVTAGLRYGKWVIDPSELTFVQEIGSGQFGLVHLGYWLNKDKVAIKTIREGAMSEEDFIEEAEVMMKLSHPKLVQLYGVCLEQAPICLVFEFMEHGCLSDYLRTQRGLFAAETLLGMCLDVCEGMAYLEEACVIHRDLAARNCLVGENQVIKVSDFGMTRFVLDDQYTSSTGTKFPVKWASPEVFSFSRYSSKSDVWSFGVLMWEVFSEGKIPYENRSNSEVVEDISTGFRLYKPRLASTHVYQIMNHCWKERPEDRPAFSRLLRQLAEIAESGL

[3] = target: panel of 255 wild-type kinases (Homo sapiens, UniProt P49840); settings: cited from earlier work
[4] = target: panel of 255 wild-type kinases (Homo sapiens, UniProt Q14012); settings: CaMK1α kinase assay, 1 µmol/L single concentration, cited from earlier work
[5] = target: panel of 255 wild-type kinases (Homo sapiens, UniProt Q16512); settings: kinase PKN1, 1 µmol/L single concentration, cited from earlier work
[6] = target: panel of 255 wild-type kinases (Homo sapiens, UniProt P07948); settings: kinase LYNa, 1 µmol/L single concentration, cited from earlier work
[7] = target: panel of 255 wild-type kinases (Homo sapiens, UniProt P50750); settings: CDK9/CycT1 kinase assay, 1 µmol/L single concentration, cited from earlier work
[8] = target: panel of 255 wild-type kinases (Homo sapiens, UniProt Q16654); settings: kinase PDHK4, 1 µmol/L single concentration, cited from earlier work
[9] = target: panel of 255 wild-type kinases (Homo sapiens, UniProt P49759); settings: kinase CLK1, 1 µmol/L single concentration, cited from earlier work
[10] = ref DOI: 10.1158/1535-7163.MCT-18-0877
[11] = kinase GSK3α, 1 µmol/L single concentration, ref DOI: 10.1158/1535-7163.MCT-18-0877
[12] = ref DOI: 10.1371/journal.pone.0092146
[13] = kinase GSK3α, 1 µmol/L single concentration, ref DOI: 10.1371/journal.pone.0092146

SMILES: COc1cc2ncnc(Nc3ccc(F)c(Cl)c3)c2cc1NC(=O)/C=C/CN1CCCCC1 [dacomitinib]
- lower IC50 (higher potency) in EGFR-mutant compared to EGFR wild-type cell lines (EGFR-mutant cell lines; on average, MANOVA): about 110 fold

SMILES: C=CC(=O)N1CCC[C@@H](n2nc(-c3ccc(Oc4ccccc4)cc3)c3c(N)ncnc32)C1 [ibrutinib]
- lower IC50 (higher potency) in EGFR-mutant compared to EGFR wild-type cell lines (EGFR-mutant cell lines; on average, MANOVA): 28 fold
- %-inhibition at 1 µmol/L, IRAK4 [1, 10]: -5%
- %-inhibition at 1 µmol/L, ITK [2, 10]: 93%
- %-inhibition at 1 µmol/L, GSK3α [3, 11]: 2.24%
- %-inhibition CaMK1α [4, 10]: 14%
- %-inhibition at 1 µmol/L, PKN1 [5, 10]: 9%
- %-inhibition at 1 µmol/L, LYNa [6, 10]: 99%

SMILES: CO[C@@H]1[C@H](N(C)C(=O)c2ccccc2)C[C@H]2O[C@]1(C)n1c3ccccc3c3c4c(c5c6ccccc6n2c5c31)C(=O)NC4 [midostaurin]
- %-inhibition at 1 µmol/L, IRAK4 [1, 10]: 27%
- %-inhibition at 1 µmol/L, ITK [2, 10]: 73%
- %-inhibition at 1 µmol/L, GSK3α [3]: 87%
- %-inhibition CDK9/CycT1 [7, 10]: 49%
- %-inhibition at 1 µmol/L, LYNa [6, 10]: 90%
- %-inhibition at 1 µmol/L, PDHK4 [8, 10]: 1.09%

SMILES: C=CC(=O)Nc1cc(Nc2nccc(-c3cn(C)c4ccccc34)n2)c(OC)cc1N(C)CCN(C)C [osimertinib]
- lower IC50 (higher potency) in EGFR-mutant compared to EGFR wild-type cell lines (EGFR-mutant cell lines): 33 fold
- %-inhibition at 1 µmol/L, IRAK4 [1, 10]: -2.76%
- %-inhibition at 1 µmol/L, ITK [2, 10]: 62%
- %-inhibition at 1 µmol/L, GSK3α [3, 11]: 15%
- %-inhibition CaMK1α [4, 10]: 10%
- %-inhibition at 1 µmol/L, CLK1 [9, 10]: 47%
- %-inhibition CDK9/CycT1 [7, 10]: 0.721%
- %-inhibition at 1 µmol/L, PKN1 [5, 10]: 14%
- %-inhibition at 1 µmol/L, LYNa [6, 10]: 0.63%
- %-inhibition at 1 µmol/L, PDHK4 [8, 10]: 0.264%

SMILES: CC(=O)Nc1cccc(-n2c(=O)n(C3CC3)c(=O)c3c(Nc4ccc(I)cc4F)n(C)c(=O)c(C)c32)c1 [trametinib]
- %-inhibition at 1 µmol/L, IRAK4 [1, 12]: -5%
- %-inhibition at 1 µmol/L, ITK [2, 12]: -7.56%
- %-inhibition at 1 µmol/L, GSK3α [3, 13]: 1.59%
- %-inhibition CaMK1α [4, 12]: -2%
- %-inhibition at 1 µmol/L, CLK1 [9, 12]: -0.618%
- %-inhibition CDK9/CycT1 [7, 12]: -2.31%
- %-inhibition at 1 µmol/L, PKN1 [5, 12]: 3.71%
- %-inhibition at 1 µmol/L, LYNa [6, 12]: -1.74%
- %-inhibition at 1 µmol/L, PDHK4 [8, 12]: -1.65%

SMILES: CCCS(=O)(=O)Nc1ccc(F)c(C(=O)c2c[nH]c3ncc(-c4ccc(Cl)cc4)cc23)c1F [vemurafenib]
- %-inhibition at 1 µmol/L, IRAK4 [1, 12]: -4.29%
- %-inhibition at 1 µmol/L, ITK [2, 12]: 3%
- %-inhibition at 1 µmol/L, GSK3α [3, 13]: 25%
- %-inhibition CaMK1α [4, 12]: -3.18%
- %-inhibition at 1 µmol/L, CLK1 [9, 12]: 5%
- %-inhibition CDK9/CycT1 [7, 12]: 1.33%
- %-inhibition at 1 µmol/L, PKN1 [5, 12]: -0.378%
- %-inhibition at 1 µmol/L, LYNa [6, 12]: 73%
- %-inhibition at 1 µmol/L, PDHK4 [8, 12]: -1.4%

SMILES: C=CC(=O)N1CCC([C@@H]2CCNc3c(C(N)=O)c(-c4ccc(Oc5ccccc5)cc4)nn32)CC1 [zanubrutinib]
- lower IC50 (higher potency) in EGFR-mutant compared to EGFR wild-type cell lines (EGFR-mutant cell lines; on average, MANOVA): 8 fold
